Experimental findings from patent US20050227999A1, “Diarylamine derivatives as calcium channel blockers” (NeuroMed Technologies Inc., priority 2004, published 2005) are described below.

Each structure is given as a SMILES string. Like-named read-outs stand apart in the source and are kept apart here.

Experiment [1] deals with T1, rat brain N-type calcium channel subunits (α1B+α2δ+β1b cDNA subunits) (Rattus norvegicus, UniProt Q02294).
T1 construct: expressed in transfected cells; host or cells: HEK 293
Nature of the experiment: N-type calcium channel block, whole cell patch clamp in transfected HEK 293 cells. It counts as cell-based. Particulars: holding potential −80 mV to +10 mV. As to the method:
N-type calcium channel blocking activity was assayed in human embryonic kidney cells, HEK 293, stably transfected with the rat brain N-type calcium channel subunits (α1B+α2δ+β1b cDNA subunits). Alternatively, N-type calcium channels (α1B+α2δ+β1b cDNA subunits), L-type channels (α1C+δ+β1b cDNA subunits) and P/Q-type channels (α1A+α2δ+β1b cDNA subunits) were transiently expressed in HEK 293 cells. Briefly, cells were cultured in Dulbecco's modified eagle medium (DMEM) supplemented with 10% fetal bovine serum, 200 U/ml penicillin and 0.2 mg/ml streptomycin at 37° C. with 5% CO2. At 85% confluency cells were split with 0.25% trypsin/l mM EDTA and plated at 10% confluency on glass coverslips. At 12 hours the medium was replaced and the cells transiently transfected using a standard calcium phosphate protocol and the appropriate calcium channel cDNA's. Fresh DMEM was supplied and the cells transferred to 28° C./5% CO2. Cells were incubated for 1 to 2 days before cell recording.
Whole cell patch clamp experiments were performed using an Axopatch 200B amplifier (Axon Instruments, Burlingame, Calif.) linked to a personal computer equipped with PCLAMP software. The external and internal recording solutions contained, respectively, 5 mM BaCl2, 10 mM MgCl2, 10 mM HEPES, 40 mM TEACl, 10 mM glucose, 87.5 mM CsCl (pH 7.2) and 108 mM CsMS, 4 mM MgCl2, 9 mM EGTA, 9 mM HEPES (pH 7.2). Currents were typically elicited from a holding potential of −80 mV to +10 mV using Clampex software (Axon Instruments). Typically, currents were first elicited with low frequency stimulation (0.067 Hz) and allowed to stabilize prior to application of the compounds. The compounds were then applied during the low frequency pulse trains for two to three minutes to assess tonic block, and subsequently the pulse frequency was increased to 0.2 Hz to assess frequency dependent block. Data were analyzed using Clampfit (Axon Instruments) and SigmaPlot 4.0 (Jandel Scientific). […]
On the technique in general: Patch clamp records ionic current or voltage across a cell membrane.

The target in experiment [2] is T2, human α1G T-type channels (Homo sapiens, UniProt O43497).
T2 construct: expressed in transfected cells
T2 sequence (O43497 whole entry): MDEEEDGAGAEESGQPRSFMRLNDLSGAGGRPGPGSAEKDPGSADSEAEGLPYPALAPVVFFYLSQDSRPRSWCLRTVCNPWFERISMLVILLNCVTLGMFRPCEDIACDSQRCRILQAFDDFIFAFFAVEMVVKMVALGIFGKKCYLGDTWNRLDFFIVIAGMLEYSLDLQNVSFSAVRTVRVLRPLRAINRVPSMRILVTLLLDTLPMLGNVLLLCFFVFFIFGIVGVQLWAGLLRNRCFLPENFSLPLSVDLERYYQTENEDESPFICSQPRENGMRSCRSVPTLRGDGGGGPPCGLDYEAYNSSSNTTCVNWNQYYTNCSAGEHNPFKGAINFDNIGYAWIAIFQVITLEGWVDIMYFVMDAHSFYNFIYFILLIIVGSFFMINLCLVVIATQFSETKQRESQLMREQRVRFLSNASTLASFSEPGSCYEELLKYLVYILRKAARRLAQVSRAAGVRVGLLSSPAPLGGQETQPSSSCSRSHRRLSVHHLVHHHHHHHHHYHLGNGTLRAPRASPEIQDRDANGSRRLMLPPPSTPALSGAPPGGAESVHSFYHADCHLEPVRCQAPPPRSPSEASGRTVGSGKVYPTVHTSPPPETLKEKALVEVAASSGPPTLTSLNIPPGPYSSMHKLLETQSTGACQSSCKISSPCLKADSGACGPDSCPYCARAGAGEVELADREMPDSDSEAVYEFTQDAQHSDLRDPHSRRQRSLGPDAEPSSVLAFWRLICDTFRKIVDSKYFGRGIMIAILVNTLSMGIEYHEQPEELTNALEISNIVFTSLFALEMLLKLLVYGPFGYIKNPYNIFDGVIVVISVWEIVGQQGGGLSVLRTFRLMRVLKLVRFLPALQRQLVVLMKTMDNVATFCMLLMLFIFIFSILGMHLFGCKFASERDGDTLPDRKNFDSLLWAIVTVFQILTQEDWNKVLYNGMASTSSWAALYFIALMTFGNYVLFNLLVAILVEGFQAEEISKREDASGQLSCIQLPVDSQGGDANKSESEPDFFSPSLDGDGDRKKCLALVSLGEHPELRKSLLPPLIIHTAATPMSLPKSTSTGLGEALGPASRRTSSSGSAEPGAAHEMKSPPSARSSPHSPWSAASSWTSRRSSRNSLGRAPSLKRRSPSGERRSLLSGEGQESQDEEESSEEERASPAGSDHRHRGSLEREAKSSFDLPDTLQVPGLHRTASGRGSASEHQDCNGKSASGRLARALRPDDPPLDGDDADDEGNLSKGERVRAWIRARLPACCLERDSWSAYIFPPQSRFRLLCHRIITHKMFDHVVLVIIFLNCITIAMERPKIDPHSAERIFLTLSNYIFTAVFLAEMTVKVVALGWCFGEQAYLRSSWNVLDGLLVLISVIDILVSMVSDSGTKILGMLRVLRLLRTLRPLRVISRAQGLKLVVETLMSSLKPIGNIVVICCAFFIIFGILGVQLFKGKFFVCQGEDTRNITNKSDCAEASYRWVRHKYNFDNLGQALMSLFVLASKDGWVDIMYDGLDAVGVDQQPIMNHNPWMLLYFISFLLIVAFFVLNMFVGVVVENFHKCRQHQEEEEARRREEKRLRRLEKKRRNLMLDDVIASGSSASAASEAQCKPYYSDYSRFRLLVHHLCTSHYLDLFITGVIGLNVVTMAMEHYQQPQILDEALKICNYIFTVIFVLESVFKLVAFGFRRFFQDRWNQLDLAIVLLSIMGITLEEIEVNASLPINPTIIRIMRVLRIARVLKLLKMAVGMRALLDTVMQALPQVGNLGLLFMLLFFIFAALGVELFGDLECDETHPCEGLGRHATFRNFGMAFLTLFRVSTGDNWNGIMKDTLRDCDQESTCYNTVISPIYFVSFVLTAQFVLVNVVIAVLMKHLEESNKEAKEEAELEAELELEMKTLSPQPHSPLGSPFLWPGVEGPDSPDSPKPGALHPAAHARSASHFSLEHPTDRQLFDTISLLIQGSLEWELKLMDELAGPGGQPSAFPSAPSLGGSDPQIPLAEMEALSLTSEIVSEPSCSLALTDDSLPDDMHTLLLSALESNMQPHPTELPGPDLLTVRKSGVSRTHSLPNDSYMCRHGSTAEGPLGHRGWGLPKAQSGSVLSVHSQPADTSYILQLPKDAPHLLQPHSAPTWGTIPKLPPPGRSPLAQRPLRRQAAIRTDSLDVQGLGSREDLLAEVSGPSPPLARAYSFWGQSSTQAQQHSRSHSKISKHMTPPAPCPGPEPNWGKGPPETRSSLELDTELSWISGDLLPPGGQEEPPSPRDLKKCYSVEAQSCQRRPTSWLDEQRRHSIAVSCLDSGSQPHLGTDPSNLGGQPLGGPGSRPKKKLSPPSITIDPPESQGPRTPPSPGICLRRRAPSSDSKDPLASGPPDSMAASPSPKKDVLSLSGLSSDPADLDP
Nature of the experiment: T-type calcium channel block, patch clamp in HEK cell lines. It counts as cell-based. The procedure: Standard patch-clamp techniques were employed to identify blockers of T-type currents. Briefly, previously described HEK cell lines stably expressing human α1G T-type channels were used for all the recordings (passage #: 4-20, 37° C., 5% CO2). To obtain T-type currents, plastic dishes containing semi-confluent cells were positioned on the stage of a ZEISS AXIOVERT S100 microscope after replacing the culture medium with external solution (see below). Whole-cell patches were obtained using pipettes (borosilicate glass with filament, O.D.: 1.5 mm, I.D.: 0.86 mm, 10 cm length), fabricated on a SUTTER P-97 puller with resistance values of ˜5 MΩ (see below for internal solution).
In the non-inactivating protocol, the holding potential is set at −110 mV and with a pre-pulse at −100 mV for 1 second prior to the test pulse at 40 mV for 50 ms. […]
Test compounds were dissolved in external solution, 0.1-0.01% DMSO. After ˜10 min rest, they were applied by gravity close to the cell using a WPI microfil tubing. The “non-inactivated” pre-pulse was used to examine the resting block of a compound. The “inactivated” protocol was employed to study voltage-dependent block. However, the initial data shown below were mainly obtained using the non-inactivated protocol only. IC50 values are shown for various compounds of the invention in Table 4.

The mark [3] stands for this setting: low frequency stimulation 0.067 Hz (tonic block), read-out: IC50 @ 0.067 Hz.
[4] abbreviates: pulse frequency 0.2 Hz (frequency dependent block), read-out: IC50 @ 0.2 Hz.
Setting [5] is: −80 mV (inactivation protocol, voltage-dependent block), read-out: IC50 - 80 mV.
[6] abbreviates: −100 mV pre-pulse (non-inactivating protocol, resting block), read-out: IC50 - 100 mV.
Setting [7] is: −100 mV pre-pulse (non-inactivating protocol, resting block).

A word on the IC50: it is the concentration needed to halve the response being measured. On to `O=C(CN(c1ccccc1)c1ccccc1)N1CCN(C(c2ccccc2)c2ccccc2)CC1` [Compound 1, 1-(4-Benzhydryl-piperazin-1-yl)-2-diphenylamino-ethanone], for which the IC50 worked out at 6630 nM in experiment [1] (setting [3]), 6610 nM in experiment [1] (setting [4]), 510 nM in experiment [2] (setting [5]) and 1350 nM in experiment [2] (setting [6]).
As to `Cc1ccc(C(c2ccccc2)N2CCN(C(=O)CN(c3ccccc3)c3ccccc3)CC2)c(C)c1` (stereo not shown) [Compound 2, 1-{4-[(2,4-Dimethyl-phenyl)-phenyl-methyl]-piperazin-1-yl}-2-diphenylamino-ethanone], the IC50 in experiment [1] (setting [3]) turned out to be 290 nM; in experiment [1] (setting [4]), 260 nM; in experiment [2] (setting [5]) it was 444 nM; in experiment [2] (setting [6]), 2000 nM.
For the compound `O=C(CN(c1ccccc1)c1ccccc1)N1CCN(C(c2ccccc2)c2ccc(Cl)cc2Cl)CC1` (stereo not shown) [Compound 3, 1-{4-[(2,4-Dichloro-phenyl)-phenyl-methyl]-piperazin-1-yl}-2-diphenylamino-ethanone], the results for the IC50 in experiment [1] (setting [3]), in experiment [1] (setting [4]) and in experiment [2] (setting [5]) were 550 nM, 460 nM and 6000 nM, respectively. Also, the “IC50 - 100 mV” value in experiment [2] (setting [7]) was “no effect”.
In the case of `O=C(CN(c1ccccc1)c1ccccc1)N1CCN(C(c2ccccc2)c2ccc(Cl)cc2)CC1` (stereo not shown) [Compound 4, 1-{4-[(4-Chloro-phenyl)-phenyl-methyl]-piperazin-1-yl}-2-diphenylamino-ethanone], the IC50 in experiment [1] (setting [3]) came out at 550 nM; in experiment [1] (setting [4]), 500 nM; in experiment [2] (setting [5]), 748 nM; in experiment [2] (setting [6]) it was 3800 nM.
Consider `O=C(CN(c1ccccc1)c1ccccc1)N1CCN(C(c2ccccc2)c2cccc(Cl)c2)CC1` (stereo not shown) [Compound 5, 1-{4-[(3-Chloro-phenyl)-phenyl-methyl]-piperazin-1-yl}-2-diphenylamino-ethanone], for which the IC50 turned out to be 310 nM in experiment [1] (setting [3]), 280 nM in experiment [1] (setting [4]) and 800 nM in experiment [2] (setting [5]). The “IC50 - 100 mV” value in experiment [2] (setting [7]) is “no effect”.
As for `O=C(CN(c1ccccc1)c1ccccc1)N1CCN(C(c2ccccc2)c2ccccc2Cl)CC1` (stereo not shown) [Compound 6, 1-{4-[(2-Chloro-phenyl)-phenyl-methyl]-piperazin-1-yl}-2-diphenylamino-ethanone], the half-inhibitory concentration (IC50) came to 330 nM in experiment [1] (setting [3]), 320 nM in experiment [1] (setting [4]) and 1200 nM in experiment [2] (setting [5]). Also, the “IC50 - 100 mV” value in experiment [2] (setting [7]) is “no effect”.
Take `CN1CCCC(CN2CCN(C(=O)CN(c3ccccc3)c3ccccc3)CC2)C1` (stereo not shown) [Compound 10, 2-Diphenylamino-1-[4-(1-methyl-piperidin-3-ylmethyl)-piperazin-1-yl]-ethanone]: the IC50 in experiment [1] (setting [3]) turned out to be 1100 nM; in experiment [1] (setting [4]) it was 980 nM; in experiment [2] (setting [5]), 2000 nM; in experiment [2] (setting [6]), 10000 nM.
Consider `O=C(CN1CCN(C(c2ccccc2)c2ccccc2)CC1)N(c1ccccc1)c1ccccc1` [Compound 16, 2-(4-Benzhydryl-piperazin-1-yl)-N,N-diphenyl-acetamide], for which the IC50 worked out at 290 nM in experiment [1] (setting [3]), 260 nM in experiment [1] (setting [4]) and 1300 nM in experiment [2] (setting [5]). In experiment [2] (setting [7]), the “IC50 - 100 mV” value is listed as “no effect”.
`O=C(CN1CCN(C(c2ccccc2)c2ccc(Cl)cc2Cl)CC1)N(c1ccccc1)c1ccccc1` (stereo not shown) [Compound 17, 2-{4-[(2,4-Dichloro-phenyl)-phenyl-methyl]-piperazin-1-yl}-N,N-diphenyl-acetamide]: the IC50 in experiment [1] (setting [3]) is 830 nM; in experiment [1] (setting [4]) it was 510 nM; in experiment [2] (setting [5]) it was 29 nM; in experiment [2] (setting [6]), 118 nM.
For the compound `Cc1ccc(C(c2ccccc2)N2CCN(CC(=O)N(c3ccccc3)c3ccccc3)CC2)c(C)c1` (stereo not shown) [Compound 18, 2-{4-[(2,4-Dimethyl-phenyl)-phenyl-methyl]-piperazin-1-yl}-N,N-diphenyl-acetamide], the IC50 in experiment [1] (setting [3]) was 1760 nM; in experiment [1] (setting [4]) it was 1250 nM; in experiment [2] (setting [5]), 84 nM; in experiment [2] (setting [6]) it was 229 nM.
Turning to `O=C(CN1CCN(C(c2ccccc2)c2ccc(Cl)cc2)CC1)N(c1ccccc1)c1ccccc1` (stereo not shown) [Compound 19, 2-{4-[(4-Chloro-phenyl)-phenyl-methyl]-piperazin-1-yl}-N,N-diphenyl-acetamide], the concentration for half-maximal inhibition (IC50) in experiment [1] (setting [3]) was 190 nM; in experiment [1] (setting [4]), 110 nM; in experiment [2] (setting [5]) it was 22 nM; in experiment [2] (setting [6]), 72 nM.
As for `O=C(CN1CCN(C(c2ccccc2)c2cccc(Cl)c2)CC1)N(c1ccccc1)c1ccccc1` (stereo not shown) [Compound 20, 2-{4-[(3-Chloro-phenyl)-phenyl-methyl]-piperazin-1-yl}-N,N-diphenyl-acetamide], the IC50 in experiment [1] (setting [3]) came out at 340 nM; in experiment [1] (setting [4]), 320 nM; in experiment [2] (setting [5]) it was 33 nM; in experiment [2] (setting [6]) it was 114 nM.
Taken in the same sequence, the figures for `O=C(CN1CCN(C(c2ccccc2)c2ccccc2Cl)CC1)N(c1ccccc1)c1ccccc1` (stereo not shown) [Compound 21, 2-{4-[(2-Chloro-phenyl)-phenyl-methyl]-piperazin-1-yl}-N,N-diphenyl-acetamide] were 124 nM, 52 nM, 34 nM and 134 nM.
Turning to `O=C(CN1CCN(C(c2ccccc2)c2cccc(Cl)c2Cl)CC1)N(c1ccccc1)c1ccccc1` (stereo not shown) [Compound 22, 2-{4-[(2,3-Dichloro-phenyl)-phenyl-methyl]-piperazin-1-yl}-N,N-diphenyl-acetamide], the IC50 in experiment [1] (setting [3]) amounted to 300 nM; in experiment [1] (setting [4]), 240 nM; in experiment [2] (setting [5]), 16 nM; in experiment [2] (setting [6]), 81 nM.
For `CN1CCC(CN2CCN(CC(=O)N(c3ccccc3)c3ccccc3)CC2)CC1` [Compound 25, 2-[4-(1-Methyl-piperidin-4-ylmethyl)-piperazin-1-yl]-N,N-diphenyl-acetamide] the same measures were 460 nM, 460 nM, 3700 nM and 5700 nM.
Take `CN(C)CCCN1CCN(CC(=O)N(c2ccccc2)c2ccccc2)CC1` [Compound 26, 2-[4-(3-Dimethylamino-propyl)-piperazin-1-yl]-N,N-diphenyl-acetamide]: the results for the IC50 in experiment [1] (setting [3]), in experiment [1] (setting [4]) and in experiment [2] (setting [5]) were 350 nM, 340 nM and 1000 nM, respectively. In experiment [2] (setting [7]), the “IC50 - 100 mV” value is recorded as “no effect”.
